Laboratory results as given in patent US20100209378A1, “Dimethylcyclohexyl Derivatives as Malodor Neutralizers” (GIVAUDAN SA, priority 2007, published 2010).

Tests used:
[1] = Headspace GC/MS malodor reduction, hexyl amine; conditions: 0.5 g test compound, 10 ul malodor in 1 l headspace jar, 60 minutes contact at 25° C.
Procedure: (§1) Amines are key contributors to many household malodors. Sulfides are present in odors associated with bad breath. In order to assess the malodor reduction efficacy of the compounds of the present invention, they were evaluated for their ability to reduce hexyl amine malodor and allyl disulphide by the following method.
(§2) A one liter glass headspace collection jar had placed inside it a 25 ml stoppered glass container which contained 0.5 g of a test compound. 10 ul of hexyl amine or allyl disulphide mercaptan as a representative malodor was injected into the headspace jar. This was left for 15 minutes at 25° C. to equilibrate. One ml/minute of the headspace was drawn for one minute through a Tenax™ headspace trap. The Tenax™ trap was removed and thermally desorbed into an Agilent 6890 GC/MS to analyze the quantity of hexyl amine and allyl disulphide mercaptan respectively in the headspace to determine the initial concentration of the hexyl amine malodor/ally disulphide mercaptan. The glass stopper was removed from the container and the test component and the malodor were left in contact for 60 minutes at 25° C. One ml/minute of the headspace was drawn for one minute through a Tenax™ trap and the amount of malodor remaining was determined as above.

[2] = Headspace GC/MS malodor reduction, allyl disulphide; conditions: 0.5 g test compound, 10 ul malodor in 1 l headspace jar, 60 minutes contact at 25° C.
Procedure: as §1, §2

[3] = Headspace GC/MS malodor reduction, onion oil; conditions: method of Example 4; diallyl sulfide and diallyl disulfide measured as standard
Procedure: as §2
(§3) Evaluation of the malodor reduction potential of the compounds of the present invention on malodors of natural garlic oil and onion oil using the methodology described in Example 4 is shown in Table 2. As standard for determining the reduction of onion oil odor the amount of diallyl sulfide and diallyl disulfide were measured, and propyl methyl disulfide and dipropyl disulfide for determining the reduction of garlic oil odor.

[4] = Headspace GC/MS malodor reduction, garlic oil; conditions: method of Example 4; propyl methyl disulfide and dipropyl disulfide measured as standard
Procedure: as §2, §3

[5] = Sensory panel (LMS) reduction of synthetic axilla malodor on cotton pads; conditions: 100 ul of 1% solution of test compound on pad with 100 ul 0.1% axilla malodor; panel of 20, LMS
Procedure: A 0.1% ethanol solution of synthetic axilla malodor was prepared and a 100 ul aliquot was placed onto cotton pads. 1% solutions of test compounds were prepared and 100 ul dosed on to the axilla treated pads. One pad was left untreated as the control. Each pad was allowed to dry for 15 minutes. The test cotton pads were randomized, and a panel of 20 was used. Each panelist was asked to check a box that represented the strength of the axilla malodor using a Labeled Magnitude Scale (LMS) (Barry G. Green, Pamela Dalton, Beverly Cowart, Greg Shaffer, Krystyna Rankin and Jennifer Higgins. Evaluating the Labeled Magnitude Scale for Measuring Sensations of Taste and Smell. Chemical Senses. Vol. 21, pp 323-334, 1996).
The % reduction of malodor was calculated by: […]
Composition 1 was compared with composition 2 for malodor reduction efficiency using the method described in Example 6.

SMILES	% Reduction of hexyl amine [1] [%]	% Reduction of allyl disulphide [2] [%]	% Reduction of onion oil odor [3] [%]	% Reduction of garlic oil odor [4] [%]	% Reduction of Axilla [5] [%]
CC(O)C(=O)OC(C)C1CCCC(C)(C)C1 (stereo not shown) [Compound A, 1-(3,3-dimethylcyclohexyl)ethyl 2-hydroxypropanoate]	80.3	81.5	87.2	87.7	77.2
CC(OCC(=O)O)C1CCCC(C)(C)C1 (stereo not shown) [Compound B, 2-(1-(3,3-dimethylcyclohexyl)ethoxy)acetic acid]	91.4	74.6	66.3	73.2	67.6
CC(OCCO)C1CCCC(C)(C)C1 (stereo not shown) [Compound C, 2-(1-(3,3-dimethylcyclohexyl)ethoxy)ethanol]	71.2	70.2	78.4	67.4	61.4
CC(C)=CCCC(C)CCOC(=O)C=C(C)C (stereo not shown) [citronellyl methylcrotonate, reference compound]					53.1
